Data as given in PMC9572942, “The Discovery of Small Allosteric and Active Site Inhibitors of the SARS-CoV-2 Main Protease via Structure-Based Virtual Screening and Biological Evaluation” (Molecules, 2022).

Columns and labels:
SARS-CoV-2 M^pro enzyme [1] = target: T1, SARS-CoV-2 M^pro enzyme (Severe acute respiratory syndrome coronavirus 2, UniProt P0DTD1); test: FRET-based enzyme assay and IC50 determination; assay type: biochemical; conditions: 4.6 μM enzyme, HEPES pH 6.5
SARS-CoV-2 M^pro enzyme [2] = target: T1, SARS-CoV-2 M^pro enzyme; test: Inhibition kinetic study (Lineweaver–Burk, FRET assay); assay type: biochemical; conditions: from slope of Lineweaver–Burk curves vs. inhibitor concentration

Compound `O=C(CSc1cnc2ccccc2n1)NC1CCCC1` [CB03] has an IC50 (SARS-CoV-2 M^pro enzyme [1]) of 301 ± 10 µM and a Ki (SARS-CoV-2 M^pro enzyme [2]) of 256 µM.
